Entries after “also recorded” stand apart in the source; their conditions may differ. Residues, ends and D or L forms follow the SMILES beside them.
Assays:
[1] = Sensory evaluation of the samples prepared in Example 50 (Example 52; panel of 4, score 0-5 or +/++/+++); assay type: in vivo, human; parameters: key to Intensity of Smell: “+” for slight; “++” for moderate; “+++” for very strong
Method: The reaction partner (amino acid, carbohydrate source) were dissolved/suspended in the reaction solvent and transferred into a glass beaker filled with sand pre-heated for at least 30 minutes at the reaction temperature in a drying oven. After the planned reaction time, the vials were transferred into ice water. After cooling to room temperature, sensory analysis and analytical characterization was performed.
For evaluation of the taste profile, the samples were tested by a panel of four people. 1 trained taster tasted independently the samples first. The taster was asked to describe the taste profile and score 0-5 according to the increasing sugar likeness, bitterness, aftertaste and lingering taste profiles. The first taster was allowed to re-taste, and then make notes for the sensory attributes perceived. Afterwards, another 3 tasters tasted and the attributes were noted and discussed openly to find a suitable description. In case that more than 1 taster disagreed with the results, the tasting was repeated. In some sensory test results (above), the taste rating was expressed by “+”, which means the intensity of the factors is shown by three levels. “+” for slight, “++” for moderate and “+++” for very strong.

[2] = sweetness depends on the tested concentration compared with sucrose; cited from earlier work
[3] = Assay to test DPPH radical-scavenging activity, Example 65; assay type: biochemical; conditions: Reb-A with or without amino acids, 100° C., FIG. 49 and FIG. 50
Method: 1 mg 1,1-Diphenyl-2-picrylhydrazyl radical (DPPH)/ml ethanol, dilution to assay concentration were prepared in ethanol (40 μg/mL); Calibration samples were prepared with Ascorbic acid in a concentration of 0-10 μg/mL; as a negative control sample, water was used.
Samples in aqueous solution were used as such or diluted with water.
A 0.1 ml sample (or calibration standard) was mixed with 3.9 ml solution of DPPH (100 μMolar) and reacted while protected from light at room temperature for 30 min. Absorbance was determined at 517 nm against ethanol.
10 mM of amino acid and/or 10 mM sugar were dissolved in 10 ml 0.1 mM KH2PO4-buffer, pH=7.8.
The samples were kept at 100° C. in sealed glass vials (Pyrex 15 ml with screw caps) for 0 (before reaction), 2.5 or 5.0 hours. Thereafter the samples were transferred to an ice water bath and cooled down to room temperature. These samples were diluted 1:10 and used for the test assay for anti-oxidant potential.

[4] = Sensory evaluation of GSGs and SGs, thaumatin, NHDC and combinations, Example 255; conditions: combinations of EPCalin (Thaumatin 45%) and NHDC dissolved in water
Method: 4.5 ppm Thaumatin (equivalent to 10 ppm EPCalin) was dissolved in water. Increasing amounts of NHDC (1-5 ppm) were added to the solution and the sensory properties were evaluated.
50 ppm (GSGs and SGs) were dissolved in water. Increasing amounts of NHDC (1-5 ppm) were added to the solution and the sensory properties were evaluated.
50 ppm (GSGs and SGs) and 4.5 ppm Thaumatin (equivalent to 10 ppm EPCalin) were dissolved in water. Increasing amounts of NHDC (1-5 ppm) were added to the solution and the sensory properties were evaluated.
Sweetness intensity was rated on 5-point scale
Sweetness intensity was rated on a 5-point scale

[5] = Table 52.3, reaction in 1 ml water + 9 ml Glycerin, 0.67 h, 100° C. (Table 50.3)
[6] = Table 52.1, samples prepared in Example 50
[7] = Table 52.2, reaction in 1 ml water + 9 ml Glycerin, 0.67 h, 100° C. (Table 50.2)
[8] = Table 52.5, reaction in 1 ml water + 9 ml Glycerin, 2.0 h, 120° C. (Table 50.5)

In the case of NCCCC[C@H](N)C(=O)O [0.1 mMol Lys], the Smell [1, 5] is reported as “Popcorn” and the Taste [1, 5] is reported as “Sweet”.

For C[C@H](CC[C@@H](O[C@@H]1O[C@H](CO[C@@H]2O[C@H](CO)[C@@H](O)[C@H](O)[C@H]2O)[C@@H](O)[C@H](O)[C@H]1O[C@@H]1O[C@H](CO)[C@@H](O)[C@H](O)[C@H]1O)C(C)(C)O)[C@H]1CC[C@@]2(C)[C@@H]3CC=C4[C@@H](CC[C@H](O[C@@H]5O[C@H](CO[C@@H]6O[C@H](CO)[C@@H](O)[C@H](O)[C@H]6O)[C@@H](O)[C@H](O)[C@H]5O)C4(C)C)[C@]3(C)[C@H](O)C[C@]12C [mogroside V], the “times sweeter than sucrose / sugar” value [2] is listed as 256-344 times.

For N[C@@H](CCC(=O)O)C(=O)O [167 mMol Glu], the Smell [1, 6] was “caramel” and the Taste [1, 6] was “Sweet”.

For C=C1C[C@@]23CC[C@H]4[C@@](C)(CCC[C@@]4(C)C(=O)O[C@@H]4O[C@H](CO)[C@@H](O)[C@H](O)[C@H]4O)[C@@H]2CC[C@]1(O[C@@H]1O[C@H](CO)[C@@H](O)[C@H](O)[C@H]1O)C3 [Rubusoside], the “times sweeter than sucrose / sugar” value [2] is listed as 200 times.

For C[C@H](N)C(=O)O [0.1 mMol Ala], the Smell [1, 7] was “Agar” and the Taste [1, 7] was “sweet”.

In the case of N[C@@H](Cc1ccccc1)C(=O)O [0.1 mMol Phe], the Smell [1, 7] is reported as “flowery/bloomy,; also recorded: caramel”, the Taste [1, 7] is reported as “sweet” and the “Intensity of Smell” value [1, 8] is reported as “+”. The Smell [1, 8] was “Caramel, burnt” and the Taste [1, 8] was “sweet”.

In the case of Thaumatin, the “times sweeter than sucrose / sugar” value [2] is listed as “about 2000 times”.

For OC[C@H]1O[C@H](O[C@]2(CCl)O[C@H](CCl)[C@@H](O)[C@@H]2O)[C@H](O)[C@@H](O)[C@H]1Cl [sucralose], the “times sweeter than sucrose / sugar” value [2] is listed as “about 600 times”.

In the case of C[C@H](CC[C@@H](O[C@@H]1O[C@H](CO)[C@@H](O)[C@H](O)[C@H]1O[C@@H]1O[C@H](CO)[C@@H](O)[C@H](O)[C@H]1O)C(C)(C)O)[C@H]1CC[C@@]2(C)[C@H]3CC=C4[C@@H](CC[C@H](O[C@@H]5O[C@H](CO[C@@H]6O[C@H](CO)[C@@H](O)[C@H](O)[C@H]6O)[C@@H](O)[C@H](O)[C@H]5O)C4(C)C)[C@]3(C)[C@H](O)C[C@]12C [mogroside IV], the “times sweeter than sucrose / sugar” value [2] is listed as 126 times.

In the case of O=S(=O)([O-])NC1CCCCC1.[Na+] [sodium cyclamate], the “times sweeter than sucrose / sugar” value [2] is listed as “about 30 times”.

For C=C1C[C@@]23CC[C@H]4[C@@](C)(CCC[C@@]4(C)C(=O)O[C@@H]4O[C@H](CO)[C@@H](O)[C@H](O)[C@H]4O)[C@@H]2CC[C@]1(O[C@@H]1O[C@H](CO)[C@@H](O)[C@H](O[C@@H]2O[C@H](CO)[C@@H](O)[C@H](O)[C@H]2O)[C@H]1O[C@@H]1O[C@H](CO)[C@@H](O)[C@H](O)[C@H]1O)C3 [0.05 mMol Reb-A], the Smell [1, 7] was “neutral/unpleasant” and the Taste [1, 7] was “sweet”.

With O=C[C@H](O)[C@H]1OC(=O)[C@@H](O)[C@H]1O [0.1 mMol GlucLac] the “Intensity of Smell” value [1, 8] was “+++”, the Smell [1, 8] was “Burnt sugar” and the Taste [1, 8] was “Bitter”.

With C=C1C[C@@]23CC[C@H]4[C@@](C)(CCC[C@@]4(C)C(=O)O[C@@H]4O[C@H](CO)[C@@H](O)[C@H](O)[C@H]4O)[C@@H]2CC[C@]1(O[C@@H]1O[C@H](CO)[C@@H](O)[C@H](O[C@@H]2O[C@H](CO)[C@@H](O)[C@H](O)[C@H]2O)[C@H]1O[C@@H]1O[C@H](CO)[C@@H](O)[C@H](O)[C@H]1O)C3 [Reb-A, Rebaudioside A] the anti-oxidant properties [3] was “substantial anti-oxidant properties”.

For OC[C@@H](O)[C@@H](O)[C@H](O)[C@H](O)CO [Mannitol], the “times sweeter than sucrose / sugar” value [2] is given as 0.55-0.65 times.

With N[C@@H](Cc1ccccc1)C(=O)O [Phe 60 mMol] the Smell [1, 6] was “flowery/bloomy-caramel” and the Taste [1, 6] was “Sweet”.

For COc1ccc(CCC(=O)c2c(O)cc(O[C@@H]3O[C@H](CO)[C@@H](O)[C@H](O)[C@H]3O[C@@H]3O[C@@H](C)[C@H](O)[C@@H](O)[C@H]3O)cc2O)cc1O [10 ppm NHDC], the Sensory evaluation [4] was “Sweet, steep onset of sweetness, no lingering”.

In the case of COC(=O)[C@H](Cc1ccccc1)NC(=O)[C@@H](N)CC(=O)O [Aspartame] (H-Asp-Phe-OMe), the “times sweeter than sucrose / sugar” value [2] is given as 160-200 times.
